The assay has as its target T1, Recombinant autotaxin (Homo sapiens, UniProt Q13822).
T1 construct: made in house; host or cells: Hi5 insect cells (baculovirus)
The experiment in a line: Autotaxin assay (Amplex Red, LPC substrate). It is filed as biochemical. The conditions noted are these: recombinant autotaxin, LPC substrate, Amplex Red detection; values given as upper bounds. The procedure, abridged: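 Recombinant autotaxin (Hi5 baculovirus, 16 ng) pre-incubated with compound 30 min at 22° C, then reacted with 75 μM egg LPC for 90 min at 37° C. Choline released is coupled to H2O2 and Amplex Red fluorescence (ex 485/em 612 nm). IC50 from ten 1:3 dilutions from 30 μM, duplicates, normalised to 500 μM C14 LPA.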
What is called IC50 is the concentration at which inhibition is half-maximal. `O=C(OCc1ccc(C(F)(F)F)cc1)N1CCN(CC2CCN(C(=O)c3ccc4[nH]nnc4c3)CC2)CC1` [Compound 109, 4-[1-(1H-Benzotriazole-5-carbonyl)-piperidin-4-ylmethyl]-piperazine-1-carboxylic acid 4-trifluoromethyl-benzyl ester]: the IC50 is less than 10 µM. On to `O=C(Nc1ccc(N2CCN(C(=O)OCc3ccc(C(F)(F)F)cc3)CC2)nc1)c1ccc2[nH]nnc2c1` [Compound 110, 4-{5-[(1H-Benzotriazole-5-carbonyl)-amino]-pyridin-2-yl}-piperazine-1-carboxylic acid 4-trifluoromethyl-benzyl ester], for which the IC50 was less than 30 µM. The same measure for `O=C(Nc1ccc2[nH]nnc2c1)c1ccc(N2CCN(C(=O)OCc3ccc(C(F)(F)F)cc3)CC2)nc1` [Compound 111, 4-[5-(1H-Benzotriazol-5-ylcarbamoyl)-pyridin-2-yl]-piperazine-1-carboxylic acid 4-trifluoromethyl-benzyl ester]: less than 10 µM. The same measure for `Nc1n[nH]c2ccc(C(=O)N3CCN(C4CCN(C(=O)OCc5ccc(C(F)(F)F)cc5)CC4)CC3)cc12` [Compound 112, 4-[4-(3-Amino-1H-indazole-5-carbonyl)-piperazin-1-yl]-piperidine-1-carboxylic acid 4-trifluoromethyl-benzyl ester]: less than 10 µM; for `O=C(OCc1ccc(C(F)(F)F)c(F)c1F)N1CCC(N2CCN(C(=O)c3ccc4[nH]nnc4c3)CC2)CC1` [Compound 113, 4-[1-(1H-Benzotriazole-5-carbonyl)-piperidin-4-yl]-piperazine-1-carboxylic acid 2,3-dilfuoro-4-trifluoromethyl-benzyl ester]: less than 1 µM.

As for `O=C(OCc1c(F)c(F)c(C(F)(F)F)c(F)c1F)N1CCN(C2CCN(C(=O)c3ccc4[nH]nnc4c3)CC2)CC1` [Compound 114, 4-[1-(1H-Benzotriazole-5-carbonyl)-piperidin-4-yl]-piperazine-1-carboxylic acid 2,3,5,6-tetrafluoro-4-trifluoromethyl-benzyl ester], the IC50 is less than 1 µM. The same measure for `O=C(OCc1cccc(C(F)(F)F)c1)N1CCN(C2CCN(C(=O)c3ccc4[nH]nnc4c3)CC2)CC1` [Compound 115, 4-[1-(1H-Benzotriazole-5-carbonyl)-piperidin-4-yl]-piperaizne-1-carboxylic acid 3-trifluoromethyl-benzyl ester]: less than 1 µM; for `O=C(OCc1cc(F)c(F)c(Cl)c1)N1CCN(C2CCN(C(=O)c3ccc4[nH]nnc4c3)CC2)CC1` [Compound 116, 4-[1-(1H-Benzotriazole-5-carbonyl)-piperidin-4-yl]-piperazine-1-carboxylic acid 3-chloro-4,5-difluoro-benzyl ester]: less than 1 µM. As to `O=C(OCc1ccc(Cl)c(F)c1)N1CCN(C2CCN(C(=O)c3ccc4[nH]nnc4c3)CC2)CC1` [Compound 117, 4-[1-(1H-Benzotriazole-5-carbonyl)-piperidin-4-yl]-piperazine-1-carboxylic acid 4-chloro-3-fluoro-benzyl ester], the IC50 was less than 1 µM. With `O=C(OCc1ccc(OC(F)(F)F)c(F)c1)N1CCN(C2CCN(C(=O)c3ccc4[nH]nnc4c3)CC2)CC1` [Compound 118, 4-[1-(1H-Benzotriazole-5-carbonyl)-piperidin-4-yl]-piperazine-1-carboxylic acid 3-fluoro-4-trifluoromethoxy-benzyl ester], the IC50 was less than 1 µM. For `Cc1ccc(COC(=O)N2CCN(C3CCN(C(=O)c4ccc5[nH]nnc5c4)CC3)CC2)cc1C(F)(F)F` [Compound 119, 4-[1-(1H-Benzotriazole-5-carbonyl)-piperidin-4-yl]-piperazine-1-carboxylic acid 4-methyl-3-trifluoromethyl-benzyl ester] the value was less than 10 µM; for `COc1c(C)cc(COC(=O)N2CCN(C3CCN(C(=O)c4ccc5[nH]nnc5c4)CC3)CC2)cc1C` [Compound 120, 4-[1-(1H-Benzotriazole-5-carbonyl)-piperidin-4-yl]-piperazine-1-carboxylic acid 4-methoxy-3,5-dimethyl-benzyl ester], less than 10 µM; for `COc1cc(COC(=O)N2CCN(C3CCN(C(=O)c4ccc5[nH]nnc5c4)CC3)CC2)cc(OC)c1OC` [Compound 121, 4-[1-(1H-Benzotriazole-5-carbonyl)-piperidin-4-yl]-piperazine-1-carboxylic acid 3,4,5-trimethoxy-benzyl ester], less than 30 µM.

Turning to `O=C(NCc1ccc(SC(F)(F)F)cc1)N1CCN(C2CCN(C(=O)c3ccc4[nH]nnc4c3)CC2)CC1` [Compound 122, 4-[1-(1H-Benzotriazole-5-carbonyl)-piperidin-4-yl]-piperazine-1-carboxylic acid 4-trifluoromethylsulfanyl-benzylamide], the IC50 is less than 10 µM. For `O=C(Cc1ccc(Cl)cc1)C(=O)N1CCN(C2CCN(C(=O)c3ccc4[nH]nnc4c3)CC2)CC1` [Compound 123, 1-{4-[1-(1H-Benzotriazole-5-carbonyl)-piperidin-4-yl]-piperazin-1-yl}-3-(4-chloro-phenyl)-propane-1,2-dione] the value was less than 10 µM. The same measure for `O=C(c1ccc2[nH]nnc2c1)N1CCC(N2CCN(C(=O)c3ccccc3-c3ccc(C(F)(F)F)cc3)CC2)CC1` [Compound 124, (1H-Benzotriazol-5-yl)-{4-[4-(4′-trifluoromethyl-biphenyl-2-carbonyl)-piperazin-1-yl]-piperidin-1-yl}-methanone]: less than 10 µM; for `O=C(c1ccc2[nH]nnc2c1)N1CCC(N2CCN(C(=O)c3ccccc3-c3cccc(C(F)(F)F)c3)CC2)CC1` [Compound 125, (1H-Benzotriazol-5-yl)-{4-[4-(3′-trifluoromethyl-biphenyl-2-carbonyl)-piperazin-1-yl]-piperidin-1-yl}-methanone]: less than 10 µM.

For `O=C(OCc1ccc(C(F)(F)F)cc1)N1CCN(C2CCN(C(=O)c3ccc4[nH]c(=O)sc4c3)CC2)CC1` [Compound 126, 4-[1-(2-Oxo-2,3-dihydro-benzothiazole-6-carbonyl)-piperidin-4-yl]-piperazine-1-carboxylic acid 4-trifluoromethyl-benzyl ester], the IC50 is less than 10 µM. As to `O=C(OCc1ccc(C(F)(F)F)cc1)N1CCN(C2CCN(C(=O)c3ccc4[nH]c(=S)[nH]c4c3)CC2)CC1` [Compound 127, 4-[1-(2-Thioxo-2,3-dihydro-1H-benzoimidazole-5-carbonyl)-piperidin-4-yl]-piperazine-1-carboxylic acid 4-trifluoromethyl-benzyl ester], the IC50 is less than 10 µM. For `O=C(OCc1cccc(OC(F)(F)F)c1)N1CCN(C2CCN(C(=O)c3ccc4[nH]nnc4c3)CC2)CC1` [Compound 128, 4-[1-(1H-Benzotriazole-5-carbonyl)-piperidin-4-yl]-piperazine-1-carboxylic acid 3-trifluoromethoxy-benzyl ester] the value was less than 1 µM; for `O=C(CCc1cc(F)c(F)c(Cl)c1)N1CCN(C2CCN(C(=O)c3ccc4[nH]nnc4c3)CC2)CC1` [Compound 129, 1-{4-[1-(1H-Benzotriazole-5-carbonyl)-piperidin-4-yl]-piperazin-1-yl}-3-(3-chloro-4,5-difluoro-phenyl)-propan-1-one], less than 10 µM; for `Cc1c(Br)cc(CCC(=O)N2CCN(C3CCN(C(=O)c4ccc5[nH]nnc5c4)CC3)CC2)cc1Br` [Compound 130, 1-{4-[1-(1H-Benzotriazole-5-carbonyl)-piperidin-4-yl]-piperazin-1-yl}-3-(3,5-dibromo-4-methyl-phenyl)-propan-1-one], less than 10 µM. The same measure for `O=C(OCc1cn(-c2ccc(Cl)cc2)nn1)N1CCN(C2CCN(C(=O)c3ccc4[nH]nnc4c3)CC2)CC1` [Compound 131, 4-[1-(1H-Benzotriazole-5-carbonyl)-piperidin-4-yl]-piperazine-1-carboxylic acid 1-(4-chloro-phenyl)-1H-[1,2,3]triazol-4-ylmethyl ester]: less than 30 µM; for `CC(OC(=O)N1CCN(C2CCN(C(=O)c3ccc4[nH]nnc4c3)CC2)CC1)c1ccc(C(F)(F)F)cc1` (centres unmarked) [Compound 132, 4-[1-(1H-Benzotriazole-5-carbonyl)-piperidin-4-yl]-piperazine-1-carboxylic acid 1-(4-trifluoromethyl-phenyl)-ethyl ester]: less than 10 µM; for `O=C(CCc1cc(Cl)c(F)c(Cl)c1)N1CCC(N2CCN(C(=O)c3ccc4[nH]nnc4c3)CC2)CC1` [Compound 133, 1-{4-[4-(1H-Benzotriazole-5-carbonyl)-piperazin-1-yl]-piperidin-1-yl}-3-(3,5-dichloro-4-fluoro-phenyl)-propan-1-one]: less than 10 µM. Take `Cn1nc2ccccc2c1COC(=O)N1CCN(C2CCN(C(=O)c3ccc4[nH]nnc4c3)CC2)CC1` [Compound 134, 4-[1-(1H-Benzotriazole-5-carbonyl)-piperidin-4-yl]-piperazine-1-carboxylic acid 2-methyl-2H-indazol-3-ylmethyl ester]: the IC50 is less than 30 µM. With `O=C(OCc1cc(-c2ccsc2)cs1)N1CCN(C2CCN(C(=O)c3ccc4[nH]nnc4c3)CC2)CC1` [Compound 135, 4-[1-(1H-Benzotriazole-5-carbonyl)-piperidin-4-yl]-piperazine-1-carboxylic acid [3,3′]bithiophenyl-5-ylmethyl ester], the IC50 is less than 1 µM. For `O=C(OCc1ccc2c(c1)OCO2)N1CCN(C2CCN(C(=O)c3ccc4[nH]nnc4c3)CC2)CC1` [Compound 136, 4-[1-(1H-Benzotriazole-5-carbonyl)-piperidin-4-yl]-piperazine-1-carboxylic acid benzo[1,3]dioxol-5-ylmethyl ester] the value was less than 10 µM; for `O=C(OCc1ccc2c(c1)OCCO2)N1CCN(C2CCN(C(=O)c3ccc4[nH]nnc4c3)CC2)CC1` [Compound 137, 4-[1-(1H-Benzotriazole-5-carbonyl)-piperidin-4-yl]-piperazine-1-carboxylic acid 2,3-dihydro-benzo[1,4]dioxin-6-ylmethyl ester], less than 10 µM.

Values taken from patent publication US9452997B2, “Piperidine and piperazine derivatives as autotaxin inhibitors” (Merck Patent GmbH, priority 2009, dated 2016).
